Assay results published in US20230227492A1 (priority 2020, published 2023).
Where two headings read alike, the source gives them in different places.

Experiments:
[1] = Liver S9 Fraction Stability Assay
[2] = target: T1, full-length, untagged, human estrogen receptors (ERα) (Homo sapiens, UniProt P03372); test: ERα fluorescence polarization (FP) binding assay
T1 construct: insect cell-expressed, full-length, untagged, human estrogen receptors; purchased Life Technologies (Carlsbad, Calif.); host or cells: insect cells
T1 sequence (P03372 whole entry): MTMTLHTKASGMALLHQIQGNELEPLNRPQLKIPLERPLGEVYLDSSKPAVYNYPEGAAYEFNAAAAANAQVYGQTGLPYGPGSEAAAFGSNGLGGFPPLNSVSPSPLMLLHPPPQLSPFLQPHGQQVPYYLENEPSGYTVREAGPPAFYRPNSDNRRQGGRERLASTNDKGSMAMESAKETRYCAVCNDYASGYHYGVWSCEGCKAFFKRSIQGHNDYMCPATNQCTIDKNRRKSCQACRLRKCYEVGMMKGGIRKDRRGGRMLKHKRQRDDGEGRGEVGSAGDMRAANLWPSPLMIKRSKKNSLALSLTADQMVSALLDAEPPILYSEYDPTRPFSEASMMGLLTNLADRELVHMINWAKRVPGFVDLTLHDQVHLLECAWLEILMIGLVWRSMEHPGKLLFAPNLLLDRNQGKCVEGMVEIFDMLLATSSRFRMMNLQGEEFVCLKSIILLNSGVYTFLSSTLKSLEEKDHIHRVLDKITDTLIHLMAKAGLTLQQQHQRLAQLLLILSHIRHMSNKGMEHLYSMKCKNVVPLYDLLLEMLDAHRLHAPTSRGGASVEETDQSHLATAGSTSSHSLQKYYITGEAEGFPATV
Protocol: (§1) Receptor Binding Assay Information—In certain of the following examples, hormone receptor binding assays were used to determine the receptor binding activities of monomeric compound embodiments to androgen (AR), progesterone (PR), estrogen alpha (ERα) or glucocorticoid (GR) receptors. For AR, PR or ERα, the respective receptors are added to novel, tight-binding, selective ligands tagged with a fluorescent molecule, to form a receptor-ligand complex with a high polarization value. This complex is then added to individual monomeric compound embodiments that are contained in well plates. If the monomeric compound binds to the respective receptors, it displaces the fluorescent ligand from the complex, resulting in a low polarization value. In such embodiments, the monomeric compound is characterized as a competitor. […] In such embodiments, the monomeric compound is characterized as a noncompetitor. The shift in polarization value in the presence of the monomeric compound is used to determine the relative affinity of monomeric compound for the receptor.
(§2) For the androgen, progesterone, and estrogen receptor binding assays described herein, the preparation of reagents and test procedures is performed according to the manufacturer's instructions (Life Technologies, Carlsbad, Calif.). The plates are covered to protect the reagents from light and incubated at 20-25° C. for 4-8 hrs.
For ERα data, the ERα fluorescence polarization (FP) assay was used, which provides a sensitive and efficient method for high-throughput screening of potential ER ligands. The kit uses insect cell-expressed, full-length, untagged, human estrogen receptors and a tight-binding, fluorescent estrogen ligand (Fluormone™ ES2) in a homogenous mix-and-read assay format. ERα was added to a fluorescent estrogen ligand to form an ERα/Fluormone™ ES2 complex. This complex was then added to individual compound embodiments contained in 96-well plates. […] The change in polarization value in the presence of a compound embodiment was used to determine relative affinity of a compound embodiment for ERα.

[3] = target: T2, recombinant human aromatase (Homo sapiens, UniProt P11511); test: Aromatization by recombinant human aromatase (CYP19+P450 reductase Supersomes); settings: 10 μM, 37° C.
T2 sequence (P11511 1-503): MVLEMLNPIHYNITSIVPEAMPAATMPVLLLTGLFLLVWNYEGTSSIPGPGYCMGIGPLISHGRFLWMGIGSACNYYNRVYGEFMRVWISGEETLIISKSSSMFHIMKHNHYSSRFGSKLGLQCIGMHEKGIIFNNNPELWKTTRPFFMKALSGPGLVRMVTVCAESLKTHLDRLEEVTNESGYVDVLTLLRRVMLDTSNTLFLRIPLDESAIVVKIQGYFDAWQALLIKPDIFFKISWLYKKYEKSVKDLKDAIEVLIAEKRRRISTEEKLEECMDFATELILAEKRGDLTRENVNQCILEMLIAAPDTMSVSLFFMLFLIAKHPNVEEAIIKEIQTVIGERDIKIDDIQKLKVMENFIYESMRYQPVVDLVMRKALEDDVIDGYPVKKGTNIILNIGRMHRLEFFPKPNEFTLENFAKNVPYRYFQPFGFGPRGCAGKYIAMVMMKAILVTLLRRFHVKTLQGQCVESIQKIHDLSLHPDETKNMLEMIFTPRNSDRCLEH

[4] = target: T3, human PR ligand-binding domain tagged with GST [PR-LBD (GST)] (Homo sapiens, UniProt P06401); test: PR fluorescence polarization (FP) binding assay; settings: Fluormone PL Green
T3 construct: purchased Life Technologies (Carlsbad, Calif.)
T3 sequence (P06401 679-913 limits assumed): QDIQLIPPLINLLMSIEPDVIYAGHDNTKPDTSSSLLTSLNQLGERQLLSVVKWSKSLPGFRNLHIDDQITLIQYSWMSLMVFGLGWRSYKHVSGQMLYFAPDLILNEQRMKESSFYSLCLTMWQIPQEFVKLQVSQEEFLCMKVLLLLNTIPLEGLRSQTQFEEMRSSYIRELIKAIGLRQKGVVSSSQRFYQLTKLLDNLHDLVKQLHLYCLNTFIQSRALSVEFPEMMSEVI
Protocol: as §1
as §2, with “hrs. The fluorescence polarization of the samples is measured with 485 nm excitation and 530 nm emission interference filters.” for “hrs.”
In this example, PR binding activity was assessed using the PR fluorescence polarization (FP) assay, which provides a sensitive and efficient method for high-throughput screening of potential PR ligands. The kit uses human PR ligand-binding domain tagged with GST [PR-LBD (GST)], and a tight-binding, selective fluorescent progesterone ligand (Fluormone™ PL Green) in a homogenous mix-and-read assay format. Progesterone receptor [PR-LBD (GST)] was added to a fluorescent progesterone ligand (Fluormone™ PL Green) to form a PR-LBD (GST)/Fluormone™ PL Green complex resulting in a high polarization value. This complex was then added to individual compound embodiments in 96-well plates. Competitors displaced the fluorescent Fluormone™ PL Green ligand from the PR-LBD (GST)/Fluormone™ PL Green complex, causing the fluorescent ligand to tumble rapidly during its fluorescence lifetime, resulting in a low polarization value. […] The shift in polarization value in the presence of compound embodiments was used to determine relative affinity of compound embodiments for PR-LBD (GST). The fluorescence polarization of the samples was measured with 485 nm excitation and 530 nm emission interference filters. Results for monomeric compound embodiments wherein the R^2 groups is not present (such as to test compound activity after R^2 cleavage) are provided in Table 4.

castrated weanling rats = settings: rat, in vivo
[5] = human liver S9, W/O NADPH, 1 μM
[6] = human liver S9, W/O NADPH, 10 μM
[7] = human liver S9, With NADPH, 1 μM
[8] = human liver S9, With NADPH, 10 μM

Row | Compound | % parent molecule remaining after 2 hours at 37° C. [1, 5] | % parent molecule remaining after 2 hours at 37° C. [1, 6] | % parent molecule remaining after 2 hours at 37° C. [1, 7] [%] | % parent molecule remaining after 2 hours at 37° C. [1, 8] [%] | % remaining at 60 min [3] [%] | other results
1 | 7-α-methylnortestosterone dodecylcarbonate [CDB-4884] | 89% | 75% | 75 | 82 | – | –
2 | 7α-t-Butyl Testosterone [CDB-4919] | – | – | – | – | 92.0 | IC50 ([2]; fluorescence polarization, Fluormone ES2, read-out: IC50 (nM) ERα): 10400 nM; IC50 ([4]; read-out: IC50 (nM) PR binding): 1400 nM
3 | C[C@@H]1CC2=CC(=O)CC[C@@H]2[C@@H]2[C@@H]1[C@@H]1CC[C@H](O)[C@@]1(C)C[C@@H]2C [CDB-1321, dimethandrolone, reference compound] | – | – | – | – | 85.3 | –
4 | C[C@@H]1CC2=CC(=O)CCC2C2C1C1CC[C@H](OC(=O)CCC(=O)O[C@H]3CCC4C5C(C6CCC(=O)C=C6C[C@H]5C)[C@@H](C)C[C@@]43C)[C@@]1(C)C[C@@H]2C (some centres unmarked) [CDB-4866] | – | – | – | – | – | AUC (Ventral Prostate) (castrated weanling rats): 1464 mg*week; duration of levator ani muscle weight increase (anabolic effects) (castrated weanling rats): sustained until Day 99 (Week 14); duration of ventral prostate weight increase (androgenic effects) (castrated weanling rats): sustained until Day 99 (Week 14); ventral prostate gland weights relative to vehicle (castrated weanling rats): increased
5 | C[C@]12CCC(=O)C=C1CCC1C2CC[C@@]2(C)C1CC[C@@H]2OC(=O)CCC(=O)O[C@H]1CCC2C3CCC4=CC(=O)CC[C@]4(C)C3CC[C@@]21C (some centres unmarked) [CDB-4877] | – | – | – | – | – | AUC (Levator ani muscle) (castrated weanling rats): 2173 mg*week; AUC (Ventral Prostate) (castrated weanling rats): 524.4 mg*week; duration of ventral prostate weight increase (androgenic effects) (castrated weanling rats): sustained until Day 99 (Week 14); ventral prostate gland weights relative to vehicle (castrated weanling rats): increased
6 | C#C[C@]1(OC(=O)CCCCCCCCCCC)CCC2C3CCC4=CC(=O)CCC4C3CC[C@@]21CC (some centres unmarked) [CDB-4880] | 78% | 86% | 54 | 76 | – | –
7 | CCCCCCCCCCCCOC(=O)O[C@H]1CCC2C3CCC4=CC(=O)CC[C@]4(C)C3CC[C@@]21C (some centres unmarked) [CDB-4883, testosterone dodecylcarbonate] | 74% | 84% | 64 | 85 | – | –
8 | C[C@@H]1CC2=CC(=O)CC[C@@H]2C2C1C1CC[C@H](OC(=O)CCNC(=O)CCC(=O)O[C@H]3CCC4C5C([C@@H](C)C[C@@]43C)[C@H]3CCC(=O)C=C3C[C@H]5C)[C@@]1(C)C[C@@H]2C (some centres unmarked) [CDB-4886] | – | – | – | – | – | duration of levator ani muscle weight increase (anabolic effects) (castrated weanling rats): sustained until Day 99 (Week 14)
9 | C#C[C@]1(OC(=O)OC(C)(C)C)CCC2C3CCC4=CC(=O)CCC4C3CC[C@@]21CC (some centres unmarked) [CDB-4889] | 100≤ % | 100≤ % | 12 | 56 | – | –
10 | CCCCCCCCCCCCOC(=O)O[C@H]1CCC2C3CCC4=CC(=O)CCC4=C3[C@@H](C)C[C@@]21C (some centres unmarked) [CDB-4892] | 88% | 77% | 75 | 82 | – | –
11 | CC1CC2=CC(=O)CCC2(C)C2CCC3(C)C(O)CCC3C12 (stereo not drawn) [CDB-4911, 7β-methyl testosterone] | – | – | – | – | 3.4 | % remaining at 15 min [3]: 62.3%; % remaining at 30 min [3]: 33.5%; IC50 ([4]; read-out: IC50 (nM) PR binding): 415 nM
12 | CC[C@@H]1CC2=CC(=O)CC[C@]2(C)C2CC[C@@]3(C)C(CC[C@@H]3O)C21 (stereo partly drawn) [CDB-4918, 7α-ethyl testosterone] | – | – | – | – | 0.1 | IC50 [2]: 10500 nM; % remaining at 15 min [3]: 33.0%; % remaining at 30 min [3]: 0.2%; IC50 ([4]; IC50 (nM) PR binding): 672 nM
13 | CC12CCC(=O)C=C1CC(c1ccccc1)C1C2CCC2(C)C(O)CCC12 (stereo not drawn) [CDB-4920, 7α-Phenyl Testosterone] | – | – | – | – | 63.6 | IC50 [2]: 13500 nM; IC50 ([4]; IC50 (nM) PR binding): 463 nM
14 | CC12CCC(=O)C=C1CC(c1ccccc1)C1C2CCC2(C)C(O)CCC12 (stereo not drawn) [CDB-4921, 7β-Phenyl Testosterone] | – | – | – | – | 62.5 | IC50 ([4]; read-out: IC50 (nM) PR binding): 787 nM
15 | CCC1CC2=CC(=O)CCC2(C)C2CCC3(C)C(O)CCC3C12 (stereo not drawn) [CDB-4924, 7β-ethyl testosterone] | – | – | – | – | 0.3 | % remaining at 15 min [3]: 58.2%; % remaining at 30 min [3]: 25.4%; IC50 ([4]; read-out: IC50 (nM) PR binding): 842 nM
16 | DMA linolate [CDB-4895] | 51% | 62% | 55 | 60 | – | –
17 | DMA oleate [CDB-4893] | 60% | 55% | 54 | 51 | – | –
